In ChEMBL document CHEMBL1165912, “Synthesis and binding analysis of unique AG2 pentasaccharide to human Siglec-2 using NMR techniques” (Bioorg Med Chem, 2010):

Molecular target: T1, B-cell receptor CD22 (Homo sapiens, UniProt P20273)
T1 sequence (P20273 whole entry): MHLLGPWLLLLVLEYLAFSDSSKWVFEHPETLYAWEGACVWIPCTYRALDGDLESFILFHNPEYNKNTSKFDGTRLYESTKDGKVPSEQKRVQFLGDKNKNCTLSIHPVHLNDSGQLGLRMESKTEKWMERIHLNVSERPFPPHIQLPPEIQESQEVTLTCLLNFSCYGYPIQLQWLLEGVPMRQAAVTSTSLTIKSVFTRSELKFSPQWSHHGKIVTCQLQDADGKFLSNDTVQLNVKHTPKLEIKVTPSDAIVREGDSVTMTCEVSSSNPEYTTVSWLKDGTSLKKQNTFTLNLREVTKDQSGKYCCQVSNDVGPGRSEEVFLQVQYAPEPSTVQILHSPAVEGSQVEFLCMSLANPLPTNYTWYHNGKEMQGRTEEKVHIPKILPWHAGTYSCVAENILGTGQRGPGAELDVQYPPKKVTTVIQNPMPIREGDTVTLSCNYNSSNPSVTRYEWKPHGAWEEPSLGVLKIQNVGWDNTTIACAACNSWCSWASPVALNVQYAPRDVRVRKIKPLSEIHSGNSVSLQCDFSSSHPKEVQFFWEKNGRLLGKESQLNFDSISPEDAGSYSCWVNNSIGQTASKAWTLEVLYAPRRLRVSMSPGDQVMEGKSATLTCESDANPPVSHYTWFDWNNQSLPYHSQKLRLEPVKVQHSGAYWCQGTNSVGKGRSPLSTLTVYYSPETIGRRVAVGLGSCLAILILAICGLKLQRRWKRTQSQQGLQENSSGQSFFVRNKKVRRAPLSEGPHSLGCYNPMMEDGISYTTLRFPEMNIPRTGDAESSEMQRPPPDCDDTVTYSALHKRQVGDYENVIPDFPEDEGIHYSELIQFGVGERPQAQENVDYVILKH
Experiment: Binding affinity to human SIGLEC2 by saturation transfer difference-titration assay

**Q.** How did the Kd turn out when CC(=O)N[C@H]1[C@@H]([C@H](O)[C@H](O)CO)O[C@@](O[C@H]2[C@@H](O)[C@@H](CO)O[C@@H](O[C@H]3[C@H](O)[C@@H](O)[C@H](OCC[Si](C)(C)C)O[C@@H]3CO)[C@@H]2O)(C(=O)O)C[C@@H]1O[C@H]1O[C@H](CO)[C@H](O)[C@H](O[C@@H]2O[C@@H]([C@H](O)CO)[C@H](O)[C@H]2O)[C@H]1O (stereo in doubt) was run?
**A.** The Kd was 2 mM.
